Where a chain is given by its changes, count along the chain named.
Experiments:
Type in all cases: cell-based
AR [1] = target: T1, AR (Homo sapiens, UniProt P10275, T878A); experiment: In Cell Western AR degradation assay in LNCaP cells; details: 18 hrs, greater than 50% degradation at 10 μM (method says 20 μM)
T1 construct: endogenous in cells; host or cells: LNCaP cells
T1 sequence (P10275 1-920 T878A): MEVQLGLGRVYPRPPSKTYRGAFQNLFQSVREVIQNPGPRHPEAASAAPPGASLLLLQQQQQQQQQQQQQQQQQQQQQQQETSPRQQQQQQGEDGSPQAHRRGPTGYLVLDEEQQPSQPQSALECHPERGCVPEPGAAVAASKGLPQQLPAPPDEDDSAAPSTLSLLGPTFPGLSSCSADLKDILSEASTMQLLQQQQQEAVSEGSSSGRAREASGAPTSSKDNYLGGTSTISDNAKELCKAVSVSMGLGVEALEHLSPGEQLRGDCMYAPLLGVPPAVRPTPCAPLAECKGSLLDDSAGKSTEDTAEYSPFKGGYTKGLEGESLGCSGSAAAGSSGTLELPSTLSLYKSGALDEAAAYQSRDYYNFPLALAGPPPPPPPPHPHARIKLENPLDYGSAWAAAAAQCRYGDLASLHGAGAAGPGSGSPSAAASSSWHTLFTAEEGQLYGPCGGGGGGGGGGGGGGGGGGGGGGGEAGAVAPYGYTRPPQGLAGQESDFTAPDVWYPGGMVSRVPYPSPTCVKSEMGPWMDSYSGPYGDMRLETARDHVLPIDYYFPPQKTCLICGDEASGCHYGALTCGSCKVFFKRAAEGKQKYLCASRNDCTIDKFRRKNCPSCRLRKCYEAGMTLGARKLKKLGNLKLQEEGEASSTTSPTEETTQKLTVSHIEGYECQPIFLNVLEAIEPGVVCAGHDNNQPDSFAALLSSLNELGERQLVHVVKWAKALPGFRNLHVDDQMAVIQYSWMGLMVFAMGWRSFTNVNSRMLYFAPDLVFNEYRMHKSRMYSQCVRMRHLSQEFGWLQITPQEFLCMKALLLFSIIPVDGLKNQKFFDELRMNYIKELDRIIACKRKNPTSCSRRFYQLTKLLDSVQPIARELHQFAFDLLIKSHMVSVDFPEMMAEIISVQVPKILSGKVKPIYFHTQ
Description: In Cell Western (AR degradation Assay, Table 2, B10). LNCaP cells were plated in 96-well clear bottom black plates (20K cells/well) in RPMI supplemented with 8% CFS. Following 48 hr incubation, cells were treated with hormone (20 μM test compound) for 18 hrs. Cells were fixed with formaldehyde (3.7%) and permeabilized using PBS (0.1% TRITON X-100). Cells were incubated with anti-AR antibody (N20, 1:2000), washed with PBS (0.1% Tween), and stained with 2nd antibody (Biotium CF770 goat anti-rabbit, 1:2000). AR protein expression was assessed using the LI-COR Odyssey imaging system. DRAQ5 (DNA stain, 1:10,000, Thermo Scientific) was used to normalize AR protein expression.
For B4-B7, scoring system is based on the relative AR target gene agonist/antagonist activity of test compounds when compared to benchmark compounds enzalutamide or bicalutamide. […] The lack of agonist activity is desirable for therapies intended to treat CRPC. For B4 and B6, a score of 1 indicates less agonism (highly desired activity) than benchmark compound enzalutamide, a score of 2 indicates equal agonism to enzalutamide (desirable), a score of 3 indicates agonism between enzalutamide and bicalutamide (less desirable activity), a score of 4 indicates equal agonism to bicalutamide (liability), and a score of 5 indicates higher agonism than bicalutamide (liability). For B5 and B7 a score of 1 indicates higher antagonist efficacy (highly desired activity) than benchmark compound enzalutamide, a score of 2 indicates equal antagonist efficacy to enzalutamide (desirable), a score of 3 indicates antagonist efficacy between enzalutamide and bicalutamide (less desirable activity), a score of 4 indicates antagonist efficacy equal to bicalutamide (liability), and a score of 5 indicates antagonist efficacy worse than bicalutamide (liability) For B9, Compounds that degrade AR (greater than 50% degradation at 10 μM) are indicated.

AR [2] = target: T2, AR (Homo sapiens, UniProt P10275); experiment: Reporter gene assay, AR transcriptional (MMTV-Luc) in CV1 cells; details: pcDNA-AR + MMTV-Luc, 0.1 nM R1881 plus test compound, 24 hrs, read-out: B1 = AR transcriptional IC50 (μM) in CV1 cells
T2 construct: expressed in transfected cells; host or cells: CV1 cells
T2 sequence (P10275 1-920): T1 sequence (P10275 1-920 T878A) with A878T
Description: (§1) Reporter Gene Assay (IC50 determination, Table 2, B1-B3). CV1 cells were seeded into 96-well cell culture plates and transfected with Lipofectin. For AR transcriptional assays, the DNA mixture consisted of pcDNA-AR, MMTV-Luc (androgen responsive reporter gene), and Renilla-Luc (for assessing transfection efficiency and toxicity). Following overnight incubation, cells were induced with hormone (0.1 nM R1881 (synthetic AR agonist) plus increasing concentrations of test compound) for 24 hrs. Cells were lysed and luciferase activity was quantified using Dual Luciferase Reagent (DLR). IC50 determination was assessed using GraphPad Prism software.

CV1 cells = experiment: Toxicity of test compound in the CV1 reporter gene assay (Renilla-Luc)
Description: as §1

Row | Structure (SMILES) | B9 = AR degradation in LNCaP cells (In-Cell Western) (AR [1]) | IC50 (AR [2]) [µM] | B2 = % Toxicity of test compound (20 μM) (CV1 cells) [%] | B3 = % Toxicity of test compound (60 μM) (CV1 cells) [%]
1 | CC1(C)CC(=O)C2=C(C1)Nc1ccc3nccnc3c1C2c1ccc(F)c(F)c1 (racemic) [Compound A83, (±)-12-(3,4-difluorophenyl)-9,9-dimethyl-8,9,10,12-tetrahydropyrazino[2,3-a]acridin-11(7H)-one] | Degrader (Compounds that degrade AR (greater than 50% degradation at 10 μM) are indicated) | 7.4 |  | 
2 | Cc1nc2ccc3c(c2nc1C)C(c1ccc(F)c(F)c1)C1=C(CC(C)(C)CC1=O)N3 (racemic) [Compound A84, (±)-12-(3,4-difluorophenyl)-2,3,9,9-tetramethyl-8,9,10,12-tetrahydropyrazino[2,3-a]acridin-11(7H)-one] | Degrader (Compounds that degrade AR (greater than 50% degradation at 10 μM) are indicated) | 55 |  | 
3 | O=C1C2=C(C(=O)c3ccccc31)C(c1ccc(F)c(F)c1)c1c(ccc3ncccc13)N2 (racemic) [Compound A85, (±)-14-(3,4-difluorophenyl)naphtho[2,3-b][4,7]phenanthroline-8,13(7H,14H)-dione] | Degrader (Compounds that degrade AR (greater than 50% degradation at 10 μM) are indicated) | > 10 |  | 
4 | CC1(C)CC(=O)C2=C(C1)Nc1ccc3ncccc3c1C2c1ccc(Cl)cc1Cl (racemic) [Compound A88, (±)-12-(2,4-dichlorophenyl)-9,9-dimethyl-8,9,10,12-tetrahydrobenzo[b][4,7]phenanthrolin-11(7H)-one] | Degrader (Compounds that degrade AR (greater than 50% degradation at 10 μM) are indicated) | 1.1 |  | 
5 | CC1(C)CC(=O)C2=C(C1)Nc1cc(N3CCCC3)ccc1C2c1ccc(F)c(F)c1 (racemic) [Compound A90, (±)-9-(3,4-difluorophenyl)-3,3-dimethyl-6-(pyrrolidin-1-yl)-3,4,9,10-tetrahydroacridin-1(2H)-one] | Degrader (Compounds that degrade AR (greater than 50% degradation at 10 μM) are indicated) | > 10 |  | 
6 | CC1(C)CC(=O)C2=C(C1)Nc1ccc3ncccc3c1C2c1ccc(Cl)c([N+](=O)[O-])c1 (centres unmarked) [Compound A5] |  | 3.3 | 24 | 68
7 | CC1(C)CC(=O)C2=C(C1)Nc1ccc3ccccc3c1C2c1cccnc1 (centres unmarked) [Compound A13] |  | 12 | 0 | 78
8 | CC1(C)CC(=O)C2=C(C1)Nc1ccc3ccccc3c1C2c1c[nH]c2ccccc12 (centres unmarked) [Compound A14] |  | > 10 | 0 | 0
9 | O=C1CCCC2=C1C(c1ccc3c(c1)OCO3)c1c(ccc3ccccc13)N2 (centres unmarked) [Compound A15] |  | > 10 | 0 | 0
10 | CC1(C)CC(=O)C2=C(C1)Nc1ccc3ccccc3c1C2c1cc([N+](=O)[O-])c(O)cc1Cl (centres unmarked) [Compound A16] |  | > 10 | 0 | 0
11 | O=C1CCCC2=C1C(c1ccco1)c1c(ccc3ccccc13)N2 (centres unmarked) [Compound A17] |  | > 10 | 0 | 36
12 | CC1(C)CC(=O)C2=C(C1)Nc1ccc3ccccc3c1C2c1ccc(-c2nnc(N)s2)cc1 (centres unmarked) [Compound A19] |  | > 10 | 0 | 87
13 | O=C1CCCC2=C1C(c1ccc(O)cc1)c1c(ccc3ccccc13)N2 (centres unmarked) [Compound A20] |  | > 10 | 0 | 0
14 | O=C1CCCC2=C1C(c1cccc([N+](=O)[O-])c1)c1c(ccc3ccccc13)N2 (centres unmarked) [Compound A21] |  | > 10 | 0 | 28
15 | Cc1n[nH]c2c1C(c1ccc([N+](=O)[O-])cc1)C1=C(N2)C(C)(C)CCC1=O (centres unmarked) [Compound A23] |  | > 10 | 0 | 0
16 | CC1(C)CC(=O)C2=C(C1)Nc1ccc3ncccc3c1C2c1ccc(O)cc1 (centres unmarked) [Compound A24] |  | > 10 | 0 | 35
17 | O=[N+]([O-])c1ccc(C2C3=C(CCCC3)Nc3ccc4ccccc4c32)cc1 (centres unmarked) [Compound A25] |  | > 10 | 23 | 42
18 | Cc1ccc(C2C3=C(CC(C)(C)CC3=O)Nc3ccc4ccccc4c32)s1 (centres unmarked) [Compound A106, 9,9-dimethyl-12-(5-methylthiophen-2-yl)-8,9,10,12-tetrahydrobenzo[a]acridin-11(7H)-one] |  | 0.8 |  | 
19 | CC1(C)CC(=O)C2=C(C1)Nc1ccc3cn[nH]c3c1C2c1ccc(Cl)s1 (centres unmarked) [Compound A108] |  | 1.2 |  | 
20 | CC1(C)CC(=O)C2=C(C1)Nc1ccc3cn[nH]c3c1C2c1ccc(Br)s1 (centres unmarked) [Compound A112] |  | 3.2 |  | 
21 | Cc1ccsc1C1C2=C(CC(C)(C)CC2=O)Nc2ccc3nccnc3c21 (centres unmarked) [Compound A115] |  | > 10 |  | 
